# Experimental data as given in patent publication US4870097A, “Pharmaceutical use of derivatives of tryptophan” (priority 1984, dated 1989).
# How the values were obtained:
# Type in all cases: in vivo, rats
# [1] = tested on: activity of analgesic drugs; assay: Hot plate test: potentiation of analgesic drugs
# Description: The method is that described by Eddy et al. (J. Pharmac. Exp. Ther. 107, 385 (1953)).
# Groups of five male rats having a weight of about 150 g and which have not been fasting are used.
# The animals are placed on a metal plate which is on the bottom of a transparent cylinder heated to 55°±1° C. by an azeotropic boiling mixture (1:1 acetone-ethyl formate). The time which passes between the moment at which the animal is placed on the hot plate and the moment at which it licks its feet or tries to jump out of the cylinder is defined as the reaction time. The control reaction time is measured 10 and 5 minutes before the administration of the drugs and 10, 20, 30, 45, 60, 90 minutes afterwards. The animals are left on the plate for a maximum period of 30 seconds.
# The response to the administration of the product is considered positive if at least a doubling of the normal reaction time is seen. The results obtained are given in Table 2 which records the groups treated, the dose administered and the stay times on the plate expressed as the number of positive responses over the number treated.
# [2] = tested on: analgesic activity of morphine; assay: Tail Flick Test: increase in the analgesic effect of morphine
# How it was run: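 Male non-fasted rats, 150-200 g; heat source (75 °C) on tail, latency to tail movement timed, 8 s cut-off. Measured before and 10, 20, 30, 45, 60, 90 min after analgesic dosing; percentage variation per animal, averaged over groups of five.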
# [3] = tested on: endogenous opiates; assay: Tail Flick Test after transcutaneous shock: analgesic activity of endogenous opiates; conditions: for Average latency, 5': 5' after electric shock; for Average latency, 10': 10' after electric shock; for Average latency, 15': 15' after electric shock
# Description: Influence of several of the compounds of the invention on the analgesic activity of endogenous opiates released under transcutaneous shock in rats measured by the Tail Flick Test
# The method is that described by Lewis et al. (J. Neurosc. 1, 358 (1981). Male rats having a weight of about 200 g, which have not been fasting, are used.
# The animals are stressed by the application to the front leg of a 60 Hz-2.5 mA current in pulses of a duration of one second every five seconds for 20 minutes.
# This stress regime causes the release of endogenous opiates.
# [4] = tested on: analgesic activity of DALA; assay: Tail Flick test: increase in the analgesic activity of DALA (i.c.v.); design: analgesic activity (Tail Flick), 10' / analgesic activity (Tail Flick), 20' / analgesic activity (Tail Flick), 30' / analgesic activity (Tail Flick), 45' / analgesic activity (Tail Flick), 60' / analgesic activity (Tail Flick), AVERAGE: scale not given here; conditions: for analgesic activity (Tail Flick), AVERAGE: average 10'-60'
# Description: In order to check one of the possible mechanisms for the action of the compounds of the invention, that is, their possible inhibition of the enzymatic degradation of endogenous enkephalins, the following experiment was carried out:
# A cannula was implanted in the right lateral ventricle of male rats having a weight of 150-200 g (groups of five animals were used) in order to allow the intracerebroventricular (i.c.v.) administration of drugs according to the method of Noble et al (Life Science 6, (1970) 281-291).
# The animals were subsequently treated (i.c.v.) with 3 μg of D-ala-methionine-enkephalinamide (DALA) immediately after an injection (i.c.v.) of the compounds under study at the doses given in Table 4. Analgesia was tested for by the Tail Flick method already mentioned, at the times
# [5] = tested on: tolerance induced by morphine; assay: Antagonism to the development of tolerance to repeated administration of morphine HCl (tail flick)
# How it was run: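 Male rats, about 200-250, in groups of six, dosed every 24 h with 3 mg/kg morphine HCl i.p. plus 3 mg/kg i.p. test compound; saline-only and morphine-only groups run alongside. Pain threshold measured by tail flick at […], 30', 45' and 60' after each treatment.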
# [6] = oxyphenylbutazone 50 + C. 33 5 mg/kg i.p.
# [7] = oxyphenylbutazone 50 + C. 33 10 mg/kg i.p.
# [8] = oxyphenylbutazone 50 + C. 33 20 mg/kg i.p.
# [9] = days 0-7, 3 mg/kg + morphine (row Morphine: alone)
smiles,measurement,setting,value
O=C(N[C@@H](Cc1c[nH]c2ccccc12)C(=O)O)OC(c1ccccc1)c1ccccc1 [Compound 33],Positive Total X/25,[1]; [6],17
same,"positive responses over the number treated, 10'",[1]; [6],3/5
same,"positive responses over the number treated, 20'",[1]; [6],3/5
same,"positive responses over the number treated, 30'",[1]; [6],4/5
same,"positive responses over the number treated, 45'",[1]; [6],4/5
same,"positive responses over the number treated, 60'",[1]; [6],3/5
same,Positive Total X/25,[1]; [7],21
same,"positive responses over the number treated, 10'",[1]; [7],3/5
same,"positive responses over the number treated, 20'",[1]; [7],5/5
same,"positive responses over the number treated, 30'",[1]; [7],5/5
same,"positive responses over the number treated, 45'",[1]; [7],5/5
same,"positive responses over the number treated, 60'",[1]; [7],3/5
same,Positive Total X/25,[1]; [8],22
same,"positive responses over the number treated, 10'",[1]; [8],4/5
same,"positive responses over the number treated, 20'",[1]; [8],5/5
same,"positive responses over the number treated, 30'",[1]; [8],5/5
same,"positive responses over the number treated, 45'",[1]; [8],4/5
same,"positive responses over the number treated, 60'",[1]; [8],4/5
same,"percentage variation in the latency of the pain sensation, 10'","[2]; 10', compound 10 mg/kg i.p. + morphine 2 mg/kg (row Morphine: alone), ± S.E.",100.0 ± 0.0%
same,"percentage variation in the latency of the pain sensation, 20'","[2]; 20', compound 10 mg/kg i.p. + morphine 2 mg/kg (row Morphine: alone), ± S.E.",87.6 ± 12.4%
same,"percentage variation in the latency of the pain sensation, 45'","[2]; 45', compound 10 mg/kg i.p. + morphine 2 mg/kg (row Morphine: alone), ± S.E.",97.0 ± 3.0%
same,"percentage variation in the latency of the pain sensation, 60'","[2]; 60', compound 10 mg/kg i.p. + morphine 2 mg/kg (row Morphine: alone), ± S.E.",65.7 ± 21.4%
same,"percentage variation in the latency of the pain sensation, 90'","[2]; 90', compound 10 mg/kg i.p. + morphine 2 mg/kg (row Morphine: alone), ± S.E.",58.1 ± 21.7%
same,M(10'-90') average percentage variation,"[2]; mean 10'-90', compound 10 mg/kg i.p. + morphine 2 mg/kg (row Morphine: alone)",82.9%
same,Potency ratio relative to morphine alone,"[2]; rat, in vivo",2.78
same,"percentage variation in the latency of the pain sensation, 30'","[2]; rat, in vivo",89.2 ± 10.8
same,"Average latency, 5'",[3]; 0.5 mg/kg i.v. + stress,6.68 ± 0.53 s
same,"Average latency, 5'",[3]; 2 mg/kg i.v. + stress,9.92 ± 0.92 s
same,"Average latency, 10'",[3]; 0.5 mg/kg i.v. + stress,6.58 ± 0.46 sec.
same,"Average latency, 10'",[3]; 2 mg/kg i.v. + stress,8.1 ± 1.0 sec.
same,"Average latency, 15'",[3]; 0.5 mg/kg i.v. + stress,5.3 ± 0.56 s
same,"Average latency, 15'",[3]; 2 mg/kg i.v. + stress,6.51 ± 0.48 s
same,"analgesic activity (Tail Flick), 10'",[4]; 10(D) + 0.001 mg/kg (ICV),64.12
same,"analgesic activity (Tail Flick), 20'",[4]; 10(D) + 0.001 mg/kg (ICV),77.56
same,"analgesic activity (Tail Flick), 30'",[4]; 10(D) + 0.001 mg/kg (ICV),72.7
same,"analgesic activity (Tail Flick), 45'",[4]; 10(D) + 0.001 mg/kg (ICV),45.76
same,"analgesic activity (Tail Flick), 60'",[4]; 10(D) + 0.001 mg/kg (ICV),57.38
same,"analgesic activity (Tail Flick), AVERAGE",[4]; 10(D) + 0.001 mg/kg (ICV),63.50 ± 5.63
same,"analgesic activity (Tail Flick), 10'",[4]; 10(D) + 0.01 mg/kg (ICV),81.48
same,"analgesic activity (Tail Flick), 20'",[4]; 10(D) + 0.01 mg/kg (ICV),100.00
same,"analgesic activity (Tail Flick), 30'",[4]; 10(D) + 0.01 mg/kg (ICV),80.22
same,"analgesic activity (Tail Flick), 45'",[4]; 10(D) + 0.01 mg/kg (ICV),59.24
same,"analgesic activity (Tail Flick), 60'",[4]; 10(D) + 0.01 mg/kg (ICV),55.88
same,"analgesic activity (Tail Flick), AVERAGE",[4]; 10(D) + 0.01 mg/kg (ICV),75.36 ± 8.08
same,"percentage variation in the latency time, day 0","[5]; day 0, 3 mg/kg i.p. + morphine HCl 3 mg/kg i.p. (row Morphine: alone)",50.12%
same,"percentage variation in the latency time, day 1","[5]; day 1, 3 mg/kg i.p. + morphine HCl 3 mg/kg i.p. (row Morphine: alone)",67.02%
same,"percentage variation in the latency time, day 2","[5]; day 2, 3 mg/kg i.p. + morphine HCl 3 mg/kg i.p. (row Morphine: alone)",51.47%
same,"percentage variation in the latency time, day 3","[5]; day 3, 3 mg/kg i.p. + morphine HCl 3 mg/kg i.p. (row Morphine: alone)",34.92%
same,"percentage variation in the latency time, day 4","[5]; day 4, 3 mg/kg i.p. + morphine HCl 3 mg/kg i.p. (row Morphine: alone)",67.3%
same,"percentage variation in the latency time, day 5","[5]; day 5, 3 mg/kg i.p. + morphine HCl 3 mg/kg i.p. (row Morphine: alone)",61.08%
same,"percentage variation in the latency time, day 6","[5]; day 6, 3 mg/kg i.p. + morphine HCl 3 mg/kg i.p. (row Morphine: alone)",20.02%
same,"percentage variation in the latency time, day 7","[5]; day 7, 3 mg/kg i.p. + morphine HCl 3 mg/kg i.p. (row Morphine: alone)",10.33%
same,Area subtended (1),[5]; [9],382.1 Effect-Day
same,regression line % Effect versus Day,[5]; [9],% Effect = - 5.38 Day + 64.12
same,Area 1 / Area Morphine,"[5]; rat, in vivo, 3 mg/kg",2.72
